ChEMBL document CHEMBL1201862, “PubChem BioAssay data set” (2004)
Active and inactive are the calls of the source.

Legend:
Cytochrome P450 3A4 = Cytochrome P450 3A4 (Homo sapiens, UniProt P08684);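 further: CYP3A4 tested as one member of a cytochrome P450 panel screen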
Streptokinase A = biological target: T1, Streptokinase A (Streptococcus pyogenes serotype M1, UniProt P10520); experiment: viability-normalized secreted streptokinase activity reduction – plasminogen activation absorbance, OD405, dose response (AID 1914); assay type: functional, Streptococcus pyogenes M1 GAS;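 further: secreted streptokinase activity via plasminogen activation per viability signal from cell pellet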
T1 sequence (P10520 whole entry): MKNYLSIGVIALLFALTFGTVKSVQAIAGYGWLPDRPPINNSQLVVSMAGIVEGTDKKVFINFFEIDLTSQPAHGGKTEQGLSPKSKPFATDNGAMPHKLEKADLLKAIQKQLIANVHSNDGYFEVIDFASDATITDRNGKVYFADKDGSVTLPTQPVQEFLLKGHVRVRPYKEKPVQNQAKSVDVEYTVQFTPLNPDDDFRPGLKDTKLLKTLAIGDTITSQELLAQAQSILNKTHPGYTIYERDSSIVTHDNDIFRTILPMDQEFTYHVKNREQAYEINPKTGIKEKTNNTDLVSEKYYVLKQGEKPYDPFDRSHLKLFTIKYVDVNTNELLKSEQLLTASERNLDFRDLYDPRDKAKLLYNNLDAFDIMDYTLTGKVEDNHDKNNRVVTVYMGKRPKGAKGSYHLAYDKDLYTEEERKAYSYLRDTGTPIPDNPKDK

Streptococcus = experiment: GAS UMAA2166 growth inhibition – luminescence, BacTiterGlo, counter-screen for streptokinase expression inhibitor project, dose response (AID 1915); assay type: functional, organism-based;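 further: potency for reduction of bacterial viability or growth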
Cytochrome P450 2C9 = Cytochrome P450 2C9 (Homo sapiens, UniProt P11712)
[1] = system: Streptococcus sp. 'group A'; experiment: Streptococcus pyogenes SK(-)GAS viability under kanamycin – luminescence, BacTiterGlo, confirmation, counter-screen for streptokinase expression inhibitor project, dose response (AID 1900); assay type: functional, organism-based

Sequence of Cytochrome P450 3A4 (P08684 whole entry): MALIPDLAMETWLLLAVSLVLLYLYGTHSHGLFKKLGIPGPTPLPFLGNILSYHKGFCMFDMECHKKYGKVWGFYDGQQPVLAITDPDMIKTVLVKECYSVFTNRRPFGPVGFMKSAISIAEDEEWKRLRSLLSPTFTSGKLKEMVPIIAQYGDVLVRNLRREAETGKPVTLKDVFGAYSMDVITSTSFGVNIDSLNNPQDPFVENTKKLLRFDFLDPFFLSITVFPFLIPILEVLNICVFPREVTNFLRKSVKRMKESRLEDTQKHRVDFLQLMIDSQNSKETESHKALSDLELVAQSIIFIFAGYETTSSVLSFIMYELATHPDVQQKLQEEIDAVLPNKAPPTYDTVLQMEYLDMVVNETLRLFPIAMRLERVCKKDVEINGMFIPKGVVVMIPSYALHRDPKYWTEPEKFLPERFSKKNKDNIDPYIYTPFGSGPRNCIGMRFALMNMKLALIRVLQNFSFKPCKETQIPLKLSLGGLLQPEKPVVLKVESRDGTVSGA
Sequence of Cytochrome P450 2C9 (P11712 whole entry): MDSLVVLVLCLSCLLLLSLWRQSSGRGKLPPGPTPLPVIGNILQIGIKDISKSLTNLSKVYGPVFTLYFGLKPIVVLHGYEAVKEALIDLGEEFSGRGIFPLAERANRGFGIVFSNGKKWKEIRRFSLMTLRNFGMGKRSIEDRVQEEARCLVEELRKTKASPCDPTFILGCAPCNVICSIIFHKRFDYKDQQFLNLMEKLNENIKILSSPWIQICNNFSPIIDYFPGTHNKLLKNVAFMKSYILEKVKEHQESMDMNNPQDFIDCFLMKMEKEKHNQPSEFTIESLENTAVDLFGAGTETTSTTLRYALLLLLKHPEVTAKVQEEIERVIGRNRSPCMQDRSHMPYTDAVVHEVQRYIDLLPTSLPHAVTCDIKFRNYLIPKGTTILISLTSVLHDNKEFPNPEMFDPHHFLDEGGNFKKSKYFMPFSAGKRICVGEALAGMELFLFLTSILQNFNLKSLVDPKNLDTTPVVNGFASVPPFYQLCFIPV

SMILES: CCCCOc1cc(C[C@@H]2CNC(=O)N2)ccc1OC
- AC50 (Cytochrome P450 3A4): 15.8 µM (inconclusive)

SMILES: O=C(Nc1ccccc1Sc1ccccc1)c1ccccc1F
- EC50 (Streptokinase A): > 50 µM (not active)
- EC50 (Streptococcus): > 150 µM (not active)

SMILES: Clc1ccccc1-c1cncnc1NCCc1cnc[nH]1
- AC50 (Cytochrome P450 2C9): 1 µM (inconclusive)

SMILES: Cc1ccc(NC(=O)OCc2cn(-c3ccc(Cl)cc3)nn2)cc1
- AC50 (Cytochrome P450 3A4): 7.94 µM (inconclusive)

SMILES: CC(C)CN1CCC2(CC1)CCN(C(=O)c1ccncc1)CC2
- AC50 (Cytochrome P450 3A4): 15.8 µM (inconclusive)

SMILES: C[C@@]12CC[C@H]3[C@@H](CC[C@@H]4C[C@H]5S[C@H]5C[C@]43C)[C@H]1CC[C@H]2O
- AC50 (Cytochrome P450 3A4): 6.31 µM (inconclusive)

SMILES: O=C(Nc1cc(C(F)(F)F)ccc1-n1cncn1)c1ccc(Br)cc1
- AC50 (Cytochrome P450 2C9): 3.16 µM (inconclusive)

SMILES: CN(C)c1cc(-c2cccc(NS(C)(=O)=O)c2)ncn1
- AC50 (Cytochrome P450 3A4): 25.1 µM (inconclusive)

SMILES: COc1ccc2c3c1O[C@@H]1C(=O)CC[C@@]4(O)[C@@H](C2)N(CC2CC2)CC[C@]314
- AC50 (Cytochrome P450 3A4): 25.1 µM (inconclusive)

SMILES: O=c1c(-c2cccs2)nc2cnc(Oc3ccccc3)nc2n1Cc1cccs1
- AC50 (Cytochrome P450 2C9): 1.58 µM (inconclusive)
- AC50 (Cytochrome P450 3A4): 15.8 µM (inconclusive)

SMILES: O=C(CSc1nc2ccc([N+](=O)[O-])cc2s1)c1ccc2ccccc2c1
- AC50 (Cytochrome P450 3A4): 3.98 µM (inconclusive)

SMILES: CC(C)CN1CCCC2(CCN(C(=O)c3cccn3C)CC2)C1
- AC50 (Cytochrome P450 3A4): 12.6 µM (inconclusive)

SMILES: Clc1ccc(-c2cc3ccccc3nc2N2CCCC2)cc1
- EC50 [1]: 8.89 µM (active)
- EC50 (Streptokinase A): 17.6 µM (active)
- EC50 (Streptococcus): > 150 µM (not active)

SMILES: Cc1ccc(N2C(=O)C3N=NN(CC(=O)N4N=C(c5cccc6ccccc56)CC4c4ccccc4)C3C2=O)cc1 (centres undefined)
- EC50 [1]: 31.4 µM (active)
- EC50 (Streptokinase A): 35.7 µM (active)
- EC50 (Streptococcus): > 150 µM (not active)

SMILES: COc1ccc(C2CC(c3cccs3)=NN2C(=O)CSc2nc(O)c3cnn(-c4ccccc4)c3n2)cc1 (centres undefined)
- EC50 [1]: 3 µM (active)
- EC50 (Streptococcus): 5.77 µM (active)

SMILES: Cc1nc2cnc(N3CCN(C)CC3)nc2n(Cc2ccc(F)cc2)c1=O
- AC50 (Cytochrome P450 3A4): 20 µM (inconclusive)

SMILES: C[C@H]1CC[C@H]2C(=O)N3[C@H](c4ccc(Br)cc4)[C@@H](C)CC[C@H]3C(=O)N2[C@@H]1c1ccc(Br)cc1
- AC50 (Cytochrome P450 3A4): 3.98 µM (inconclusive)

SMILES: CC(NC(=O)CN1CCCC1)C12CC3CC(CC(C3)C1)C2 (centres undefined)
- AC50 (Cytochrome P450 3A4): 14.1 µM (inconclusive)

SMILES: CCNC(C)(C)[C@@H](SS)c1ccc(Br)cc1
- AC50 (Cytochrome P450 2C9): 6.31 µM (inconclusive)
- AC50 (Cytochrome P450 3A4): 5.01 µM (inconclusive)

SMILES: COc1ccccc1CNc1ncncc1-c1ccoc1
- AC50 (Cytochrome P450 2C9): 1.58 µM (inconclusive)
- AC50 (Cytochrome P450 3A4): 0.794 µM (inconclusive)

SMILES: COCCOC(=O)C1=C(C)NC(=O)N(C(C)=O)C1c1ccc(Cl)cc1 (centres undefined)
- AC50 (Cytochrome P450 3A4): 17.8 µM (inconclusive)

SMILES: COc1ccccc1CNc1ncncc1-c1ccccc1OC
- AC50 (Cytochrome P450 2C9): 1.58 µM (inconclusive)

SMILES: COc1cccc(NCc2cc(=O)oc3cc(C)c(O)cc23)c1
- EC50 [1]: 1.83 µM (active)
- EC50 (Streptococcus): 2.79 µM (active)

SMILES: O=C(c1ccco1)N(CCC(c1ccccc1)c1ccco1)Cc1ccco1 (centres undefined)
- AC50 (Cytochrome P450 3A4): 11.2 µM (inconclusive)

SMILES: CCCC(N=C(S)NCC1CCCO1)C12CC3CC(CC(C3)C1)C2 (centres undefined)
- EC50 [1]: 12.3 µM (active)
- EC50 (Streptococcus): > 150 µM (not active)

SMILES: CCCC(NC(=S)NCC1CCCO1)C12CC3CC(CC(C3)C1)C2 (centres undefined)
- EC50 (Streptokinase A): 18 µM (active)

SMILES: CC(C)c1c(C(=O)N/N=C/c2cccc(OCc3ccccc3)c2)nnn1-c1nonc1N
- EC50 [1]: 8.03 µM (active)
- EC50 (Streptokinase A): 9.73 µM (active)
- EC50 (Streptococcus): 26.4 µM (active)

SMILES: C/C(=N\NC(=O)c1[nH]c2c([N+](=O)[O-])cc(C)cc2c1-c1ccccc1)c1cccnc1
- AC50 (Cytochrome P450 2C9): 8.91 µM (inconclusive)

SMILES: CN(C)c1ccc(-c2noc(C3CCN(S(=O)(=O)c4cccc(C(=O)O)c4)CC3)n2)cc1
- AC50 (Cytochrome P450 2C9): 15.8 µM (inconclusive)

SMILES: COc1cccc(-c2cncnc2NCc2ccc(OC)cc2OC)c1
- AC50 (Cytochrome P450 2C9): 1 µM (inconclusive)

SMILES: C1=C(CN2CCOCC2)COc2c1cccc2OC[C@@H]1CNCCO1
- AC50 (Cytochrome P450 3A4): 39.8 µM (inconclusive)
